Patent publication US8426459B2, “Composition of flavanolignan and amino acid with improved water solubility” (Agra Group, A.S., priority 2008, dated 2013)
Converted amounts (≈) assume the structure as drawn. Read-outs that look alike come from different tables or passages of the source.

Assays:
[1] = 25° C., cited from earlier work
[2] = cited from earlier work
[3] = Solubility of individual components of flavanolignans in the mixture according to Example 1; format: physicochemical; conditions: for solubility: read-out: Solubility of individual component in the mixture according to Example 1
From the text: Solubility of individual components of flavanolignans in the mixture according to Example 1

[4] = aqueous solution, 25° C., cited from earlier work; for p I: pI = ½ (pK2 + pK3)
[5] = Solutions of amino acids in water easily prepared at room temperature; format: physicochemical
From the text: When dissolving the mixtures according to the invention in water it is necessary to take into consideration the different solubilities of the basic amino acids themselves.

[6] = Buffer solution pH 4.5 (Bates, sodium acetate and hydrochloric acid, ionic strength 0.05)

| Solubility of individual component in the mixture according to Example 1 [3, 6] | Solubility of individual component in the mixture according to Example 1 ([3]; Purified water) | Compound | pKa.1 ([2]; 25° C.) | pKa.2 ([2]; 25° C.) | pKa.3 ([2]; 25° C.) | pKa.1 ([2]; 37° C.) | pKa.2 ([2]; 37° C.) | pKa.3 ([2]; 37° C.) | other results |
| --- | --- | --- | --- | --- | --- | --- | --- | --- | --- |
|  |  | COc1cc(C2Oc3cc([C@H]4Oc5cc(O)cc(O)c5C(=O)[C@@H]4O)ccc3OC2CO)ccc1O (stereo partly shown) [silybin] | 7.00 | pKa.2[25° C.] = 8.77; pKa.2[37° C.] = 8.77 | 9.57 | 6.86 | pKa.2[25° C.] = 8.77; pKa.2[37° C.] = 8.77 | 9.62 | solubility of silybin ([1]; Capryl-caprine triglyceride): 800 ± 500 µg/mL; solubility of silybin ([1]; Castor oil): 7100 ± 1200 µg/mL; solubility of silybin ([1]; Ethanol): 225200 ± 5200 µg/mL; solubility of silybin ([1]; Ethoxy diglycol): 350100 ± 10400 µg/mL; solubility of silybin ([1]; Ethyl linoleate): 2100 ± 800 µg/mL; solubility of silybin ([1]; Fish oil): 500 ± 200 µg/mL; solubility of silybin ([1]; Glyceryl monooleate): 33200 ± 2800 µg/mL; solubility of silybin ([1]; Polyethylene glycol 200): 345900 ± 9500 µg/mL; solubility of silybin ([1]; Polyethylene glycol 400/ethanol (1:1)): 342100 ± 7100 µg/mL; solubility of silybin ([1]; Propylene glycol): 162400 ± 3600 µg/mL; solubility of silybin ([1]; Tocopherol): 20000 ± 1900 µg/mL; solubility of silybin ([1]; Water): 400 ± 100 µg/mL |
| 209.62 µg/mL | 289.05 µg/mL | COc1cc([C@@H]2Oc3cc([C@H]4Oc5cc(O)cc(O)c5C(=O)[C@@H]4O)ccc3O[C@H]2CO)ccc1O [Silybin B, silybin B] |  |  |  |  |  |  |  |
| 78.63 µg/mL | 112.90 µg/mL | Isosylibin |  |  |  |  |  |  |  |
| 127.95 µg/mL | 178.41 µg/mL | COc1cc([C@H]2Oc3cc([C@H]4Oc5cc(O)cc(O)c5C(=O)[C@@H]4O)ccc3O[C@@H]2CO)ccc1O [Silybin A, silybin A] |  |  |  |  |  |  |  |
|  |  | N=C(N)NCCC[C@H](N)C(=O)O [L-arginine] |  |  |  |  |  |  | pK1 [4]: 2.01; pK2 [4]: 9.04; pK3 [4]: 12.48; p I [4]: 10.76 |
|  |  | NCCCC[C@H](N)C(=O)O [L-lysine] |  |  |  |  |  |  | concentration of amino acid solution in water that can be easily prepared [5]: 1.0 M; pK1 [4]: 2.18; pK2 [4]: 8.95; pK3 [4]: 10.53; p I [4]: 9.47 |
| 241.57 µg/mL | 258.24 µg/mL | COc1cc([C@@H]2Oc3c(O)cc([C@H]4Oc5cc(O)cc(O)c5C(=O)[C@@H]4O)cc3[C@H]2CO)ccc1O [silychristin] | 6.52 | 7.22 | 8.96 | 6.62 | 7.41 | 8.94 |  |
|  |  | COc1cc([C@@H]2[C@H]3CO[C@@]4(O)C(=O)[C@@H]2C=C([C@H]2Oc5cc(O)cc(O)c5C(=O)[C@@H]2O)[C@@H]34)ccc1O [silydianin] | 6.64 | 7.78 | 9.66 | 7.10 | 8.93 | 10.06 | solubility ([3]; aqueous buffer, Buffer solution pH 4.5 (Bates, sodium acetate and hydrochloric acid, ionic strength 0.05)): 189 µg/mL (≈ 392 µM); solubility ([3]; purified water, water): 215 µg/mL (≈ 445 µM) |
